Test results published in patent publication US4943579A, “Water soluble prodrugs of camptothecin” (priority 1987, dated 1990).
Converted amounts (≈) assume the structure as drawn. Counter-ions that a name gives are not always drawn. Like-named read-outs stand apart in the source and are kept apart here.

Assays:
[1] = tested on: leukemia L-1210; conditions: mice; cited from earlier work
[2] = subsequent biological evaluation in earlier reports; cited from earlier work
[3] = tested on: L-1210 lymphoid leukemia; assay: Anti-tumor activity in CDF-1 mice implanted with L-1210 lymphoid leukemia (IP/IP, QD4 × 2); type: in vivo; conditions: Mus musculus, read-out: T/C; for response vs control in vivo at 30 mg/kg: 30 mg/Kg per injection; for response vs control in vivo at 50 mg/kg: 50 mg/Kg per injection
Procedure: (§1) Table 1 represents the aqueous solubility and the anti-tumor activity of these compounds. The anti-tumor testing was carried out in CDF-1 mice in which were implanted L-1210 lymphoid leukemia, and the drug is delivered intraperitoneally on a schedule of QD4X2.

[4] = cited from earlier work
[5] = preclinical, beagle and rhesus monkey; cited from earlier work
[6] = Aqueous solubility; type: physicochemical; conditions: water
Procedure: as §1

[7] = tested on: Walker 256 tumor; conditions: rats; cited from earlier work
[8] = In vitro murine plasma hydrolysis of prodrugs; type: in vitro ADME; conditions: mouse, initial drug concentration 50 mcg/ml, read-out: t1/2 of hydrolysis in murine plasma
Description: (§2) The data are shown to reflect the relative hydrolysis rates as measured by t1/2, the time required for the concentration of the drug to become one half of the starting concentration. Freshly obtained samples of human and murine plasma were used in these studies.
(§3) ^(a) Initial drug concentration (50 mcg/ml)

[9] = In vitro human plasma hydrolysis of prodrugs; type: in vitro ADME; conditions: initial drug concentration 50 mcg/ml, read-out: t1/2 of hydrolysis in human plasma
Description: as §2, §3

[10] = early clinical studies; cited from earlier work
[11] = animal models; Wani et al. 1980; cited from earlier work

| Structure (SMILES) | half-life [8] | half-life [9] | solubility ([6]; read-out: Aqueous solubility) | response vs control in vivo at 30 mg/kg ([3]; L1210, IP/IP, QD4 × 2) | further results |
| --- | --- | --- | --- | --- | --- |
| CC[C@@]1(O)C(=O)OCc2c1cc1n(c2=O)Cc2cc3ccccc3nc2-1 [Camptothecin] |  |  |  |  | Carcinostatic activity, leukemia L-1210 [1]: inhibitor activity; Toxicity [2]: highly toxic; response vs control in vivo at 8 mg/kg ([3]; L1210, ip): 197%; Solubility in aqueous vehicles ([4]; aqueous vehicles suitable for parenteral administration): practically insoluble; Eosinophilia and bone marrow depression [5]: moderate eosinophilia and bone marrow depression; Hepatotoxicity [5]: Minimal hepatotoxicity; Major dose-limiting toxic effect [5]: Hemorrhagic enterocolitis; solubility [6]: 50 µg/mL (≈ 144 µM); Carcinostatic activity, Walker 256 tumor [7]: inhibitor activity |
| CC[C@@]1(OC(=O)CN)C(=O)OCc2c1cc1n(c2=O)Cc2cc3ccccc3nc2-1 [Formula 7, Camptothecin-20-O-glycinate.HCl] | 36 min | 15 min | 6000 µg/mL |  | response vs control in vivo at 15 mg/kg ([3]; L1210, 15 mg/Kg per injection, IP/IP, QD4 × 2): 162% |
| CC[C@@]1(OC(=O)CNC)C(=O)OCc2c1cc1n(c2=O)Cc2cc3ccccc3nc2-1 [Formula 8] | 28 min | 13 min | 4000 µg/mL | 191% |  |
| CCNCC(=O)O[C@]1(CC)C(=O)OCc2c1cc1n(c2=O)Cc2cc3ccccc3nc2-1 [Formula 9] | 40 min | 18 min | 8000 µg/mL | 170% |  |
| CCN(CC)CC(=O)O[C@]1(CC)C(=O)OCc2c1cc1n(c2=O)Cc2cc3ccccc3nc2-1 [Formula 10, Camptothecin-20-O-(N,N-diethyl)glycinate.HCl] |  | 45 min | 5000 µg/mL | 256% |  |
| CC[C@@]1(OC(=O)C(N)CCCCCN)C(=O)OCc2c1cc1n(c2=O)Cc2cc3ccccc3nc2-1 (some centres unmarked) [Formula 12] | 48 min | 20 min | 15000 µg/mL |  | response vs control in vivo at 50 mg/kg ([3]; L1210, IP/IP, QD4 × 2): 253% |
| CC[C@@]1(OC(=O)C(N)CCC(=O)O)C(=O)OCc2c1cc1n(c2=O)Cc2cc3ccccc3nc2-1 (some centres unmarked) [Formula 13] | 35 min | 18 min | 6000 µg/mL |  | response vs control in vivo at 50 mg/kg ([3]; L1210, IP/IP, QD4 × 2): 154% |
| CC[C@@]1(OC(=O)CCC(=O)O)C(=O)OCc2c1cc1n(c2=O)Cc2cc3ccccc3nc2-1 [Formula 14, Camptothecin-20-O-hemisuccinate sodium salt] | 40 min | 16 min | 13000 µg/mL |  | response vs control in vivo at 47 mg/kg ([3]; L1210, 47 mg/Kg per injection, IP/IP, QD4 × 2): 200% |
| CC[C@@]1(OP(=O)(O)O)C(=O)OCc2c1cc1n(c2=O)Cc2cc3ccccc3nc2-1 [Formula 15, Camptothecin-20-phosphate sodium salt] | 27 min | 20 min | 8000 µg/mL |  | response vs control in vivo at 44 mg/kg ([3]; L1210, 44 mg/Kg per injection, IP/IP, QD4 × 2): 192% |
| CC[C@@](O)(C(=O)O)c1cc2n(c(=O)c1CO)Cc1cc3ccccc3nc1-2 [Sodium camptothecin] |  |  |  |  | Clinical outcome [10]: disappointing; Clinical toxicity [10]: unexpected toxicity that precluded achievement of therapeutically useful doses; Potency relative to parent camptothecin [11]: 10-20%; Solubility in water ([4]; in water): > 50000 µg/mL |
